# According to patent US5885994A, “Tetrahydroquinoxaline dopamine D4 receptor antagonists” (Warner-Lambert Company, priority 1998, dated 1999):
# Assays:
# [1] = test system: amphetamine-stimulated locomotion; test: Blockade of amphetamine-stimulated locomotion in rats; assay type: in vivo, rat
# Description: PROTOCOL FOR THE BLOCKADE OF AMPHETAMINE-STIMULATED LOCOMOTION IN RATS
# The blockade of amphetamine-stimulated locomotion procedure is a modification of the Locomotor Activity Protocol in the Omnitech Digiscan Activity Monitors described above. The blockade of amphetamine-stimulated locomotion procedure uses the central nervous system stimulant d-amphetamine to assess antipsychotic activity of dopaminergic agents.
# Male Sprague-Dawley rats (Harlan Labs) were used for these studies. Drugs were dissolved in saline or water, and administered either orally (PO) or intraperitoneally (IP) in volumes of 5 mL/kg. Saline control rats and amphetamine (0.5 mg/kg IP) control rats are included with each study (n=4-6 rats per treatment group). For the IP studies, amphetamine is given 20 minutes prior to the drug, after which a 30 minute locomotor activity test is conducted. For the oral study, drug is dosed 30 minutes prior to the test, while amphetamine is given 15 minutes prior to the test, which allows time for oral absorption. Locomotor activity (centimeters travelled per 30 minute test) is measured in 16"×16" open chambers. Amphetamine generally produces a 2- to 3-fold increase in locomotion over saline controls. Drug effects are reported as percent reversal of amphetamine-stimulated locomotion. Significant changes in amphetamine-stimulated locomotion, relative to amphetamine treated controls, were determined by t-test. The dose which would reverse amphetamine-stimulated locomotion by 50% (ED50) and the 95% confidence limits were estimated by regression analysis.
# locomotor activity = test: Behavioral activity (locomotor activity) in the Omnitech Digiscan Animal Activity Monitors; assay type: in vivo, mice and rats
# Experimental: PROTOCOL FOR THE BEHAVIORAL ACTIVITY ASSESSMENT OF MICE AND RATS IN THE OMNITECH DIGISCAN ANIMAL ACTIVITY MONITORS
# The purpose of this test is to evaluate compounds for antipsychotic-like central nervous system (CNS) effects and a variety of other behavioral effects generally associated with CNS activity. […] Generally, however, drug effects on behavior are assessed using total distance traveled (in cm) as the most accurate measure of locomotor activity.
# Male CD-1 albino mice weighing 20 to 40 g (Charles River Laboratories) or male Sprague-Dawley rats weighing 150 to 300 g (Harlan Laboratories) are used for these studies. […] Drug doses are expressed as the active moiety (taking into account the salt vs free base molecular weight of the drug). […]
# Once the animal is placed in the activity chamber, the chambers are individually activated to begin collecting data. Activity levels are generally monitored with the overhead lights turned off, as the dark-stimulation tends to produce less variation in the data. […]
# Data can be expressed as either actual counts, time (in sec), centimeters traveled, or percent inhibition of activity relative to vehicle-treated control animals tested concurrently. Significant changes in activity (i.e., cm traveled), relative to controls, are determined by t-test or analysis of variance and Newman-Keul's multiple-range test. […]
smiles,measurement,setting,value
"Cc1ccc(N2CCN(Cc3ccc4c(c3)NCCN4)CC2)cc1C [Example 2, 6-[4-(3,4-Dimethylphenyl)piperazin-1-ylmethyl]-1,2,3,4-tetrahydroquinoxaline]",blockade of amphetamine-stimulated locomotion (result in words),"[1]; rat, 1, 3, 10 and 30 mg/kg IP",dose-dependent blockade
same,ED50,"[1]; rat, PO, read-out: oral blockade of amphetamine-stimulated locomotion ED50",5.8 mg/kg
same,Omnitech Digiscan Activity Monitor test (result in words),"locomotor activity; 1, 3, 10, 30 mg/kg IP",dose-dependent decrease
same,ED50,"locomotor activity; Mus musculus, ip",16.5 mg/kg
